Legend:
IKZF2 (Helios) = IKZF2 (Helios) (Homo sapiens, UniProt Q96SW2+Q9UKS7); assay: Screening of DC50 (nM) and Dmax (%) using WB-IKZF2 cell line (Western blot); type: cell-based; design: endogenous in cells; conditions: 6 hours; for DC50: class symbols, read-out: WB-IKZF2 DC 50
Description: Experimental Example 2. Screening of DC50 (nM) and Dmax (%) Using WB-IKZF2 Cell Line
Candidate degraders were serially diluted and treated in cells cultured in complete medium, followed by incubation for 6 hours at 37° C. in a CO2 incubator. After 6 hours, the cells were harvested and lysed in RIPA buffer (150 mM NaCl, 1% Triton X-100, 1% sodium deoxycholate, 0.1% SDS, 50 mM Tris-HCl pH 7.5, and 2 mM EDTA) containing a protease inhibitor cocktail (Roche). The mixture was vortexed every 10 minutes and incubated on ice for 30 minutes, followed by centrifugation at 13,000 rpm for 10 minutes at 4° C. to isolate proteins. The isolated proteins were quantified using the Bradford assay (Bio-Rad, 5000006). Proteins were separated on 8% SDS-polyacrylamide gel, transferred onto nitrocellulose membranes (Amersham, 10600002), and incubated with primary antibodies at 4° C. for 18 hours. The following primary antibodies were used: anti-Helios rabbit monoclonal antibody (Cell Signaling, 42427, 1:3000) and anti-β-actin mouse monoclonal antibody (Santa Cruz, sc-47778, 1:5000). β-actin was used as a loading control. The next day, the membranes were washed with 1×TBST for 30 minutes and incubated with HRP-conjugated secondary antibodies corresponding to the primary antibodies at room temperature for 1 hour. The following secondary antibodies were used: anti-mouse IgG HRP-linked antibody (Sigma, A9044, 1:5000) and anti-rabbit IgG HRP-linked antibody (Cell Signaling, 7074, 1:5000). After washing with 1×TBST for 30 minutes, protein expression was visualized using the Pierce ECL Western blotting substrate (Thermo Fisher, 32106), and images were captured using a chemiluminescence image analysis system (GE Healthcare, AI680). The obtained images were quantified using the ImageJ software.

Helios (IKZF2) = Helios (IKZF2) (Homo sapiens, UniProt Q96SW2+Q9UKS7); assay: Screening of Helios protein degraders using Nano-Glo HiBiT cell line (HiBiT-IKZF2); type: cell-based; conditions: for remaining activity at 10 µM: compound 10 μM, read-out: HiBiT-IKZF2 Residual amount of Helios (%) 10 μM; for remaining activity at 10 µM / remaining activity at 1 µM: 6 hours, HiBiT-Helios knock-in Jurkat cells; for remaining activity at 1 µM: compound 1 μM, read-out: HiBiT-IKZF2 Residual amount of Helios (%) 1 μM
Chain of Helios (IKZF2) (Q9UKS7 whole entry): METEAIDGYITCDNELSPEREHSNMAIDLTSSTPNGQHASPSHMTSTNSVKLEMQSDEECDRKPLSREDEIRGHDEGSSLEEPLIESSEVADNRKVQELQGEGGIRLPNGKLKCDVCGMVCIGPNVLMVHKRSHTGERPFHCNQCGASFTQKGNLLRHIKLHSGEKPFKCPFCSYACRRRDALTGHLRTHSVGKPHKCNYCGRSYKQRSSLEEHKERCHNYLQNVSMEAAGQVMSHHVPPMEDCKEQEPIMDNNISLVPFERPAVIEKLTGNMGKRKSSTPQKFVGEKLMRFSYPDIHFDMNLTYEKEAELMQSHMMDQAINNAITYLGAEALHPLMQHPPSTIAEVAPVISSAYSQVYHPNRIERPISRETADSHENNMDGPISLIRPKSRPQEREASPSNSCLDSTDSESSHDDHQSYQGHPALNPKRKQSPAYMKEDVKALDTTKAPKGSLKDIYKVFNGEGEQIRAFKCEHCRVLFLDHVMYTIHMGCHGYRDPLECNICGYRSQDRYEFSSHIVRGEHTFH
Chain of Helios (IKZF2) (Q96SW2 whole entry): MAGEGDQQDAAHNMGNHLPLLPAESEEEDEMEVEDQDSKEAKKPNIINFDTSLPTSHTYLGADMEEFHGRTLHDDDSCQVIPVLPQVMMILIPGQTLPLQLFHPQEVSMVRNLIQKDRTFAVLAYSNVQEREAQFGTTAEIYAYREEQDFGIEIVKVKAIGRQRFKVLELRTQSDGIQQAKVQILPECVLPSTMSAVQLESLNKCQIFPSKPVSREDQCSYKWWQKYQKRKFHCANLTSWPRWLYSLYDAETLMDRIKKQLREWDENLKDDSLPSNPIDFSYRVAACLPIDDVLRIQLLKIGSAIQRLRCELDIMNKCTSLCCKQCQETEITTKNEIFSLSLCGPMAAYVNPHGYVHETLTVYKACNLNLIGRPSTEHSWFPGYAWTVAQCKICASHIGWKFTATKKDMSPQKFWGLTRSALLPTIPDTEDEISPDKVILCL
Chain of Helios (IKZF2) (Q16531 whole entry partner): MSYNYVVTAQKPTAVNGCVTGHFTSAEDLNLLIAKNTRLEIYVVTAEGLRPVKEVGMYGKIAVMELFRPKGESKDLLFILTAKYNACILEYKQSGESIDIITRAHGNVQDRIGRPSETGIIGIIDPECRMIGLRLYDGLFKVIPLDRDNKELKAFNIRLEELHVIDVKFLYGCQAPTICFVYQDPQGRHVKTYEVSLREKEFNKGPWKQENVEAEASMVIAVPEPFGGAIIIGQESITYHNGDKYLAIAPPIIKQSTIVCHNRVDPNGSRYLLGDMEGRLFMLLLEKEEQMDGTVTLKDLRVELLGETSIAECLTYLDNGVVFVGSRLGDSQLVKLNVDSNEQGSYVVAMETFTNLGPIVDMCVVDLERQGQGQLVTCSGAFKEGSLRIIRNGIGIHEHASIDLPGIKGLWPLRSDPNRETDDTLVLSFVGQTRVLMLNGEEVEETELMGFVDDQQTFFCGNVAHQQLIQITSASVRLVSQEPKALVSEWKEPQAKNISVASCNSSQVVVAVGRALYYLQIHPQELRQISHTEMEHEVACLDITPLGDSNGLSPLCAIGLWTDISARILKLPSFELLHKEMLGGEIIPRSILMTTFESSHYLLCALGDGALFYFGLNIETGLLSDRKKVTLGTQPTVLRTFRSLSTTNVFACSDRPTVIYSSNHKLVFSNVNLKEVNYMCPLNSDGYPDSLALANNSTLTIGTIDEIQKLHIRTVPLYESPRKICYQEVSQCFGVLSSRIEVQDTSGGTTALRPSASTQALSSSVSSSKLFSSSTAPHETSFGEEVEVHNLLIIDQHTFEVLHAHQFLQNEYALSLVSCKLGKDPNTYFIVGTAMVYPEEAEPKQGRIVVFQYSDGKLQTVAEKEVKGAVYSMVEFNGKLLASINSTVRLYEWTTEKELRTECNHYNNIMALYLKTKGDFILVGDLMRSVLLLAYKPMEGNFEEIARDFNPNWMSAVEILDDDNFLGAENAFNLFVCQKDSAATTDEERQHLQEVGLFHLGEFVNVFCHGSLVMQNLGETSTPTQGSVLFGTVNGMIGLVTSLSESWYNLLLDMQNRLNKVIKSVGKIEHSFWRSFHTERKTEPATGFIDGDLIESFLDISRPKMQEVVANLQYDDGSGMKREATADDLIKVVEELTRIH

Chain of IKZF2 (Helios) (Q9UKS7 whole entry): as the sequence (Q9UKS7 whole entry) above
Chain of IKZF2 (Helios) (Q96SW2 whole entry): as the sequence (Q96SW2 whole entry) above
Chain of IKZF2 (Helios) (Q16531 whole entry partner): as the sequence (Q16531 whole entry partner) above

Row | DC50 (IKZF2 (Helios)) [nM] | remaining activity at 10 µM (Helios (IKZF2)) [%] | remaining activity at 1 µM (Helios (IKZF2)) [%] | Dmax (IKZF2 (Helios)) [%] | Compound | IKZF2 degradation activity (in words, comment on Table 1) (Helios (IKZF2); as shown in Table 1)
1 | 10 to 100 | 5.4 |  |  | Cc1c(C(=O)N2CCC(c3ccc4c(c3)CN(C3CCC(=O)NC3=O)C4=O)CC2C)[nH]c2cc(Cl)ccc12 (centres unmarked) [Compound 60, 3-(5-(1-(6-chloro-3-methyl-1H-indole-2-carbonyl)-2-methylpiperidin-4-yl)-1-oxoinsoindolin-2-yl)piperidine-2,6-dione] | 
2 | 100 to 1000 | 8.67 |  |  | Cc1c(C(=O)N2CCC(c3ccc4c(c3)CN(C3CCC(=O)NC3=O)C4=O)CC2)[nH]c2cc(Br)ccc12 (centres unmarked) [Compound 49, 3-(5-(1-(6-bromo-3-methyl-1H-indole-2-carbonyl)piperidin-4-yl)-1-oxoinsoindolin-2-yl)piperidine-2,6-dione] | 
3 | 10 to 100 | 10.8 |  |  | Cc1c(C(=O)N2CCC(c3ccc4c(c3)CN(C3CCC(=O)NC3=O)C4=O)CC2)[nH]c2cc(C#N)ccc12 (centres unmarked) [Compound 52, 2-(4-(2-(2,6-dioxopiperidin-3-yl)-1-oxoindolin-5-yl)piperidine-1-carbonyl)-3-methyl-1H-indole-6-carbonitrile] | 
4 | 100 to 1000 | 11 |  |  | Cc1cc2c(C)c(C(=O)N3CCC(c4ccc5c(c4)CN(C4CCC(=O)NC4=O)C5=O)CC3)[nH]c2cc1[N+](=O)[O-] (centres unmarked) [Compound 85, 3-(5-(1-(3,5-dimethyl-6-nitro-1H-indole-2-carbonyl)piperidin-4-yl)-1-oxoinsoindolin-2-yl)piperidine-2,6-dione] | 
5 | 10 to 100 | 14.6 | 10.9 |  | Cc1c(C(=O)N2CCC(c3ccc4c(c3)CN(C3CCC(=O)NC3=O)C4=O)CC2)[nH]c2c(F)c(Cl)ccc12 (centres unmarked) [Compound 99, 3-(5-(1-(6-chloro-7-fluoro-3-methyl-1H-indole-2-carbonyl)piperidin-4-yl)-1-oxoinsoindolin-2-yl)piperidine-2,6-dione] | 
6 | < 10 |  | 34.6 | 100 | Cc1c(C(=O)N2CCC(c3ccc4c(c3F)CN(C3CCC(=O)NC3=O)C4=O)CC2)[nH]c2cc(Cl)c(O)cc12 (centres unmarked) [Compound 115, 3-(5-(1-(6-chloro-5-hydroxy-3-methyl-1H-indole-2-carbonyl)piperidin-4-yl)-4-fluoro-1-oxoinsoindolin-2-yl)piperidine-2,6-dione] | 
7 | 10 to 100 | 8.21 |  |  | Cc1c(C(=O)N2CCC(c3ccc4c(c3)CN(C3CCC(=O)NC3=O)C4=O)CC2)[nH]c2cc(C(F)(F)F)ccc12 (centres unmarked) [Compound 48, 3-(5-(1-(3-methyl-6-(trifluoromethyl)-1H-indole-2-carbonyl)piperidin-4-yl)-1-oxoinsoindolin-2-yl)piperidine-2,6-dione] | 
8 | 10 to 100 |  | 23 | 98 | Cc1c(C(=O)N2CCC(c3cc4c(cc3F)C(=O)N(C3CCC(=O)NC3=O)C4)CC2)[nH]c2cc(Cl)c(F)cc12 (centres unmarked) [Compound 112, 3-(5-(1-(6-chloro-5-fluoro-3-methyl-1H-indole-2-carbonyl)piperidin-4-yl)-6-fluoro-1-oxoinsoindolin-2-yl)piperidine-2,6-dione] | 
9 | 100 to 1000 | 19 | 29.6 |  | CCNC(=O)Nc1ccc2c(C)c(C(=O)N3CCC(c4ccc5c(c4)CN(C4CCC(=O)NC4=O)C5=O)CC3)[nH]c2c1 (centres unmarked) [Compound 75, 1-(2-(4-(2-(2,6-dioxopiperidin-3-yl)-1-oxoindolin-5-yl)piperidine-1-carbonyl)-3-methyl-1H-indol-6-yl)-3-ethylurea] | 
10 | 10 to 100 | 9.9 |  |  | Cc1c(C(=O)N2CCC(c3ccc4c(c3)CN(C3CCC(=O)NC3=O)C4=O)CC2)[nH]c2cc([N+](=O)[O-])c(O)cc12 (centres unmarked) [Compound 86, 3-(5-(1-(5-hydroxy-3-methyl-6-nitro-1H-indole-2-carbonyl)piperidin-4-yl)-1-oxoinsoindolin-2-yl)piperidine-2,6-dione] | 
11 | 10 to 100 | 10.9 |  |  | Cc1c(C(=O)N2CCC(c3ccc4c(c3)C(=O)N(C3CCC(=O)NC3=O)C4=O)CC2)[nH]c2cc([N+](=O)[O-])ccc12 (centres unmarked) [Compound 95, 2-(2,6-dioxopiperidin-3-yl)-5-(1-(3-methyl-6-nitro-1H-indole-2-carbonyl)piperidin-4-yl)isoindoline-1,3-dione] | 
12 | < 10 | 26.2 | 21.8 | 100 | Cc1c(C(=O)N2CCC(c3ccc4c(c3)CN(C3CCC(=O)NC3=O)C4=O)CC2)[nH]c2cc(Cl)c(F)cc12 (centres unmarked) [Compound 102, 3-(5-(1-(6-chloro-5-fluoro-3-methyl-1H-indole-2-carbonyl)piperidin-4-yl)-1-oxoinsoindolin-2-yl)piperidine-2,6-dione] | 
13 | 10 to 100 | 21.4 | 14.6 |  | COc1cc2c(C)c(C(=O)N3CCC(c4ccc5c(c4)CN(C4CCC(=O)NC4=O)C5=O)CC3)[nH]c2cc1[N+](=O)[O-] (centres unmarked) [Compound 97, 3-(5-(1-(5-methoxy-3-methyl-6-nitro-1H-indole-2-carbonyl)piperidin-4-yl)-1-oxoinsoindolin-2-yl)piperidine-2,6-dione] | 
14 | < 10 | 8.5 |  | 100 | Cc1c(C(=O)N2CCC(c3ccc4c(c3F)CN(C3CCC(=O)NC3=O)C4=O)CC2)[nH]c2cc([N+](=O)[O-])ccc12 (centres unmarked) [Compound 94, 3-(4-fluoro-5-(1-(3-methyl-6-nitro-1H-indole-2-carbonyl)piperidin-4-yl)-1-oxoinsoindolin-2-yl)piperidine-2,6-dione] | 
15 | < 10 | 6.2 |  | 100 | Cc1c(C(=O)N2CCC(c3cc4c(cc3F)C(=O)N(C3CCC(=O)NC3=O)C4)CC2)[nH]c2cc(Cl)ccc12 (centres unmarked) [Compound 90, 3-(5-(1-(6-chloro-3-methyl-1H-indole-2-carbonyl)piperidin-4-yl)-6-fluoro-1-oxoinsoindolin-2-yl)piperidine-2,6-dione] | 
16 | < 10 | 26.5 |  | 100 | Cc1c(C(=O)N2CCC(c3cc4c(cc3F)C(=O)N(C3CCC(=O)NC3=O)C4)CC2)[nH]c2cc([N+](=O)[O-])ccc12 (centres unmarked) [Compound 93, 3-(6-fluoro-5-(1-(3-methyl-6-nitro-1H-indole-2-carbonyl)piperidin-4-yl)-1-oxoinsoindolin-2-yl)piperidine-2,6-dione] | 
17 | < 10 | 25.3 | 14.2 | 100 | COc1cc2c(C)c(C(=O)N3CCC(c4ccc5c(c4)CN(C4CCC(=O)NC4=O)C5=O)CC3)[nH]c2cc1Cl (centres unmarked) [Compound 71, 3-(5-(1-(6-chloro-5-methoxy-3-methyl-1H-indole-2-carbonyl)piperidin-4-yl)-1-oxoinsoindolin-2-yl)piperidine-2,6-dione] | 
18 | 100 to 1000 | 7.7 |  |  | Cc1c(C(=O)N2CCC(c3ccc4c(c3)CN(C3CCC(=O)NC3=O)C4=O)CC2)[nH]c2cc(OC(F)(F)F)ccc12 (centres unmarked) [Compound 53, 3-(5-(1-(3-methyl-6-(trifluoromethoxy)-1H-indole-2-carbonyl)piperidin-4-yl)-1-oxoinsoindolin-2-yl)piperidine-2,6-dione] | 
19 | < 10 |  |  |  | Cc1c(C(=O)N2CCC(c3ccc4c(c3F)CN(C3CCC(=O)NC3=O)C4=O)CC2)[nH]c2c(F)c(Cl)ccc12 (centres unmarked) [Compound 117, 3-(5-(1-(6-chloro-7-fluoro-3-methyl-1H-indole-2-carbonyl)piperidin-4-yl)-4-fluoro-1-oxoinsoindolin-2-yl)piperidine-2,6-dione] | 
20 | 10 to 100 |  |  | 96 | Cc1c(C(=O)N2CCC(c3ccc4c(c3F)CN(C3CCC(=O)NC3=O)C4=O)CC2)[nH]c2cc(N3CCOCC3)ccc12 (centres unmarked) [Compound 116, 3-(4-fluoro-5-(1-(3-methyl-6-morpholino-1H-indole-2-carbonyl)piperidin-4-yl)-1-oxoinsoindolin-2-yl)piperidine-2,6-dione] | 
21 | < 10 |  |  | 100 | Cc1c(C(=O)N2CCC(c3ccc4c(c3F)CN(C3CCC(=O)NC3=O)C4=O)CC2)[nH]c2cc(C#N)ccc12 (centres unmarked) [Compound 118, 2-(4-(2-(2,6-dioxopiperidin-3-yl)-4-fluoro-1-oxoindolin-5-yl)piperidine-1-carbonyl)-3-methyl-1H-indole-6-carbonitrile] | 

Row | Compound | DC50 (IKZF2 (Helios)) [nM] | remaining activity at 10 µM (Helios (IKZF2)) [%] | remaining activity at 1 µM (Helios (IKZF2)) [%] | Dmax (IKZF2 (Helios)) [%] | IKZF2 degradation activity (in words, comment on Table 1) (Helios (IKZF2); as shown in Table 1)
22 | Cc1c(C(=O)N2C3CCC2CC(c2ccc4c(c2)CN(C2CCC(=O)NC2=O)C4=O)C3)[nH]c2cc(Cl)ccc12 (centres unmarked) [Compound 58, 3-(5-(8-(6-chloro-3-methyl-1H-indole-2-carbonyl)-8-azabicyclo[3.2.1]octan-3-yl)-1-oxoinsoindolin-2-yl)piperidine-2,6-dione] | 10 to 100 | 5.2 |  |  | excellent IKZF2 degradation activity
